Data from PubChem BioAssay AID602335 (The Scripps Research Institute Molecular Screening Center, 2012).
pIC50: −log10 of the molar value. The source made the active and inactive calls. No rule for the calls is given here.

How the values were obtained:
[1] = molecular target: Diacylglycerol lipase-beta (Mus musculus) (UniProt Q91WC9); experiment: ABHD6 anti-target inhibition potency, dose response, selectivity assay for DAGLb inhibitor project, cell-based, gel-based competitive ABPP, fluorescence, in situ (AID 602335); settings: DAGLb
[2] = molecular target: Monoacylglycerol lipase ABHD6 (Mus musculus) (UniProt Q8R2Y0); experiment: as above
Monoacylglycerol lipase ABHD6 (Mus musculus), sequence (Q8R2Y0 whole entry, looked up): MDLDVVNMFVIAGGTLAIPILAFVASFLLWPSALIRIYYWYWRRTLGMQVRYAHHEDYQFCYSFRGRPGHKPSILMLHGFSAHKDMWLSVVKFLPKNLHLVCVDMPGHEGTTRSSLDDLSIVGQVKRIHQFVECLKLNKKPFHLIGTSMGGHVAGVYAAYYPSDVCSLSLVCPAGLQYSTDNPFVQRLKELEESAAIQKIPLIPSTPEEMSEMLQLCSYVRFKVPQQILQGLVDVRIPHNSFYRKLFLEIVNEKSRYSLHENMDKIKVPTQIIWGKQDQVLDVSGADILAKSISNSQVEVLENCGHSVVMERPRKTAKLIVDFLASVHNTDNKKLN

Diacylglycerol lipase-beta (Mus musculus), sequence (Q91WC9 whole entry, looked up): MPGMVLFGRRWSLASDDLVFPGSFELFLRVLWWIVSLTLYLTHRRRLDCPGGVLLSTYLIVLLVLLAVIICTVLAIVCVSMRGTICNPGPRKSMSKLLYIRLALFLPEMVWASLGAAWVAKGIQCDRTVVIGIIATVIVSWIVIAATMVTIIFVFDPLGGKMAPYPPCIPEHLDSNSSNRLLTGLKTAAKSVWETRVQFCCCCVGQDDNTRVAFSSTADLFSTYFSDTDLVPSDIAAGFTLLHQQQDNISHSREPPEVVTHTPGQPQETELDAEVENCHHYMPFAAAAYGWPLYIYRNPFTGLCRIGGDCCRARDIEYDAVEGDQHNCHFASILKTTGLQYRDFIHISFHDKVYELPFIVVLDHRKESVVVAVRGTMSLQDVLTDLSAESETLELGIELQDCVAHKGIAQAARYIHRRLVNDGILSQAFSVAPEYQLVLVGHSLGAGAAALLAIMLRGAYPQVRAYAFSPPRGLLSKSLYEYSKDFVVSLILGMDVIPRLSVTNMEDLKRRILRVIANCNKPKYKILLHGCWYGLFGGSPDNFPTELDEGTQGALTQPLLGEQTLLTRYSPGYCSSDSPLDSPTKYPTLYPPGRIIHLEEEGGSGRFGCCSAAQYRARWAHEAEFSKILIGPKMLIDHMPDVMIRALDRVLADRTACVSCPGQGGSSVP

COc1ccc(-c2ccc(-c3cn(C(=O)N4CCCCC4c4ccccc4)nn3)cc2)cc1 (stereo unspecified) was tested, and the IC50 [1] was > 0.1 µM (inactive) and the pIC50 [2] was 8.89.
O=C(N1CCCCC1c1ccccc1)n1cc(-c2ccc(-c3ccccc3)cc2)nn1 (stereo unspecified) was tested, and the IC50 [1] was > 0.1 µM (inactive) and the pIC50 [2] was 9.77.
O=C(O)c1cccc(-c2ccc(-c3cn(C(=O)N4CCCCC4Cc4ccccc4)nn3)cc2)c1 (stereo unspecified) was tested, and the IC50 [1] was > 0.1 µM (inactive).
O=C(N1CCCCC1c1ccccc1)n1cc(-c2ccc(-c3cccc(CO)c3)cc2)nn1 (stereo unspecified) was tested, and the IC50 [1] was > 0.1 µM (inactive).
